Reference: patent publication US4933456A, “Dipyridoxyl phosphate NMRI contrast agents” (Salutar, Inc., priority 1987, dated 1990)

Legend:
[1] = Potentiometric titration of the ligand DPDP; assay type: physicochemical; conditions: pH of 3 and above
Experimental: The compound DPDP was studied potentiometrically from pH 11.2 to 2.0. Data sets were collected on a custom-built automatic potentiometric titration apparatus composed of a METROHM 655 DOSIMAT automatic buret, a FISHER ACCUMET pH meter with a CORNING calomel combination electrode, a custom-blown water jacketed titration cell, a BRINKMAN LAUDA K-2/R constant temperature bath and a COMMODORE 64 computer. […] Data analysis was performed on an IBM-AT computer using the least squares program, BETA (Harris, W. et al, supra), and the data analysis program, HANDNBAR (Harris, W. et al, supra). The titrants were standardized by phenophthalein titration as follows: KOH was calibrated against potassium hydrogen phthalate (a primary standard), and HCl solutions were calibrated against the KOH standard. […] All solutions were made from distilled, deionized water that was further purified on a MILLI-Q cartridge system, degassed, and then kept under an atmosphere of argon which had been scrubbed for CO2 and O2. Additions of EDTA and Mn(II) solutions were performed using calibrated GILMOT pipets.

[2] = cited from earlier work

Cc1ncc(COP(=O)(O)O)c(CN(CCN(CC(=O)O)Cc2c(COP(=O)(O)O)cnc(C)c2O)CC(=O)O)c1O [DPDP, N,N'-bis-(pyridoxal-5-phosphate)ethylenediamine-N,N'-diacetic acid or N,N'-bis(3-hydroxy-2-methyl-5-phosphonomethyl-4-pyridylmethyl)ethylenediamine-N,N'-diacetic acid]
ionization state of the ligand [1]: anionic and possesses deprotonated metal binding sites

O=C(O)C(NCCNC(C(=O)O)c1ccccc1O)c1ccccc1O (centres unmarked) [EHPG, N,N'-ethylenebis-2-(o-hydroxyphenyl)glycine]
stability of the Fe(III) chelate ([2]; Anderegg et al): high stability
oxidation of manganese(II) in EHPG complexes ([2]; above pH 5, also under inert atmospheres, Frost et al): irreversibly oxidized

O=C(O)CN(CCN(CC(=O)O)Cc1ccccc1O)Cc1ccccc1O [HBED, N,N'-bis(2-hydroxybenzyl)ethylenediamine-N,N'-diacetic acid]
log Kf (formation constant) ([2]; manganese chelate, reported by L'Eplathenier et al): 14.8
oxidation of manganese(II) by the phenolic ligand during titration ([2]; titrations of L'Eplathenier et al, judged from Patch et al): oxidized by the phenolic ligand
